Data as given in ChEMBL document CHEMBL1201862, “PubChem BioAssay data set” (2004).
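How tested: cells in 96-well plates exposed to compound for 48 hours at five concentrations. GI50 is the concentration that inhibits growth by half.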 Calls of active or inactive are those of the source. No stated cut-off is given here; in the data, active = GI50 up to about 1.1 µM and inactive = higher.

Legend:
Experiment in all cases: NCI anticancer screen, dose series, 48 h
HCC 2998 = test system: HCC 2998
SK-MEL-5 = test system: SK-MEL-5
HCT-116 = test system: HCT-116
HCT-15 = test system: HCT-15
LOX IMVI = test system: LOX IMVI
OVCAR-5 = test system: OVCAR-5
SW-620 = test system: SW-620
TK-10 = test system: TK-10
RPMI-8226 = test system: RPMI-8226
SF-539 = test system: SF-539
MCF7 = test system: MCF7
KM12 = test system: KM12
SN12C = test system: SN12C
M14 = test system: M14
OVCAR-3 = test system: OVCAR-3
HT-29 = test system: HT-29
UACC-257 = test system: UACC-257
U-251 = test system: U-251
786-0 = test system: 786-0

Structure (SMILES)	GI50 (HCC 2998)	GI50 (SK-MEL-5)	GI50 (HCT-116)	GI50 (HCT-15)	GI50 (LOX IMVI)	GI50 (OVCAR-5)	GI50 (SW-620)	GI50 (TK-10)	GI50 (RPMI-8226)	GI50 (SF-539)	GI50 (MCF7)	GI50 (KM12)	GI50 (SN12C)	GI50 (M14)	GI50 (OVCAR-3)	GI50 (HT-29)	GI50 (UACC-257)	GI50 (U-251)	GI50 (786-0)
O=C(O)CC(NC(=O)/C(=C/c1ccccc1)NC(=O)c1ccccc1)C(=O)O (stereo not drawn)	> 100 µM (inactive)	> 100 µM (inactive)	> 100 µM (inactive)	> 100 µM	> 100 µM (inactive)	> 100 µM (inactive)	> 100 µM (inactive)	> 100 µM (inactive)	> 100 µM (inactive)	> 100 µM (inactive)	> 100 µM (inactive)	> 100 µM (inactive)	> 100 µM (inactive)	> 100 µM (inactive)	> 100 µM (inactive)	> 100 µM (inactive)	> 100 µM (inactive)	> 100 µM (inactive)	> 100 µM (inactive)
CC(CN(C)C)C(=O)/C=C/c1ccc(Cl)c(Cl)c1 (stereo not drawn)	1.94 µM (inactive)	1.6 µM (inactive)	1.56 µM (inactive)	1.59 µM	1.56 µM (inactive)	2.06 µM (inactive)	2.07 µM (inactive)	2.02 µM (inactive)	0.338 µM (active)	1.46 µM (inactive)	0.307 µM (active)	1.31 µM (inactive)	1.58 µM (inactive)	2.09 µM (inactive)	1.78 µM (inactive)	1.67 µM (inactive)	2.38 µM (inactive)	1.26 µM (inactive)	0.766 µM (active)
Cn1c(=O)cc(NNc2ccccc2)[nH]c1=O	> 100 µM (inactive)	> 100 µM (inactive)	17.8 µM (inactive)	16.4 µM	14.9 µM (inactive)	85.5 µM (inactive)	17.5 µM (inactive)	30.3 µM (inactive)	17.1 µM (inactive)	> 100 µM (inactive)	1.78 µM (inactive)	26.3 µM (inactive)	61.5 µM (inactive)	29.9 µM (inactive)	16.7 µM (inactive)	15.7 µM (inactive)	48.3 µM (inactive)	17.8 µM (inactive)	16.2 µM (inactive)
CC1C(C#N)(C#N)C(C#N)=C(N)C1(Cl)[N+](=O)[O-] (stereo not drawn)	17.3 µM (inactive)	12.1 µM (inactive)	7.19 µM (inactive)	3.39 µM	5.32 µM (inactive)	14.9 µM (inactive)	2.17 µM (inactive)	14.9 µM (inactive)	11.2 µM (inactive)	11.5 µM (inactive)	17.2 µM (inactive)	18.7 µM (inactive)	8.18 µM (inactive)	5.07 µM (inactive)	10 µM (inactive)	9.04 µM (inactive)	12 µM (inactive)	17.1 µM (inactive)	5.48 µM (inactive)
CC(CC[C@@]1(O)OC2C[C@H]3[C@@H]4CC[C@H]5CC(OC6OC(CO)C(OC7OC(CO)C(O)C(OC8OCC(O)C(O)C8O)C7OC7OC(CO)C(O)C(O)C7O)C(O)C6O)[C@H](O)CC5(C)[C@H]4CCC3(C)C2[C@@H]1C)COC1OC(CO)C(O)C(O)C1O (stereo partly drawn)	13.8 µM (inactive)	6.9 µM (inactive)	3.67 µM (inactive)	20.9 µM	8.97 µM (inactive)	11.7 µM (inactive)	11.6 µM (inactive)	2.39 µM (inactive)	19.4 µM (inactive)	3.73 µM (inactive)	8.71 µM (inactive)	15.3 µM (inactive)	2.35 µM (inactive)	25 µM (inactive)	3.46 µM (inactive)	11 µM (inactive)	15.8 µM (inactive)	15.5 µM (inactive)	3.43 µM (inactive)
Nc1ncnc2c1ncn2C1C=CC(CP(=O)(O)O)C1 (stereo not drawn)	> 100 µM (inactive)	> 100 µM (inactive)	> 100 µM (inactive)	> 100 µM	> 100 µM (inactive)	> 100 µM (inactive)	> 100 µM (inactive)	> 100 µM (inactive)	> 100 µM (inactive)	> 100 µM (inactive)	> 100 µM (inactive)	> 100 µM (inactive)	> 100 µM (inactive)	> 100 µM (inactive)	> 100 µM (inactive)	> 100 µM (inactive)	> 100 µM (inactive)	> 100 µM (inactive)	> 100 µM (inactive)
CC(C)CCNC(=O)c1ccc(CNC(=O)/C=C/c2cccc(Oc3ccccc3)c2)cc1	26.9 µM (inactive)	51.2 µM (inactive)	24.5 µM (inactive)	38.6 µM	37.2 µM (inactive)	> 100 µM (inactive)	41.4 µM (inactive)	22.6 µM (inactive)	67.9 µM (inactive)	11.6 µM (inactive)	36.5 µM (inactive)	44 µM (inactive)	43.7 µM (inactive)	31 µM (inactive)	28.4 µM (inactive)	30.5 µM (inactive)	23.2 µM (inactive)	28.8 µM (inactive)	24 µM (inactive)
